Measured values: patent publication US20230303561A1, “PYRIMIDINONE DERIVATIVE, PREPARATION METHOD THEREOF AND USE THEREOF IN RESISTING MYCOBACTERIUM TUBERCULOSIS INFECTION” (INSTITUTE OF MEDICINAL BIOTECHNOLOGY, CHINESE ACADEMY OF …, priority 2020, published 2023)
≈ marks a conversion by molar mass, not a printed value. Like-named read-outs stand apart in the source and are kept apart here.

System: MTB H37Rv
Assay: Bacteriostasis experiment: MIC in 96-well plate, two-fold dilution method
Format: cell-based, Mycobacterium tuberculosis
Settings: for anti-mycobacterium tuberculosis MIC compared with the positive control drug INH: MTB H37Rv, statement on Table 1 data; for MIC: Mycobacterium tuberculosis, ATCC 27294 / H37Rv, 240 h, read-out: Inhibitory activity against Mycobacterium tuberculosis, MIC, MTB H37Rv
[1] = MTB H37Rv (ATCC 27294), 7H9 medium, 37° C., about 10 days

Row | Compound | MIC [1] [µg/mL] | further results
1 | CCCSc1nc2c(c(=O)[nH]1)C(c1ccc(O)c([N+](=O)[O-])c1)CC(=O)N2 (stereo not shown) [LSL-10-04, 2-propylmercapto-5-(4-hydroxy-3-nitrophenyl)-5,6-dihydropyrido[2,3-d]pyrimidin-4,7(3H,8H)-dione] | 0.625 (≈ 1.66 µM) | anti-mycobacterium tuberculosis MIC compared with the positive control drug INH: equivalent to that of the positive control drug INH
2 | CCCSc1nc2c(c(=O)[nH]1)C(c1cnc3ccccc3c1)CC(=O)N2 (stereo not shown) [LSL-11-36, 2-propylmercapto-5-(quinolin-3-yl)-5,6-dihydropyrido[2,3-d]pyrimidin-4,7(3H,8H)-dione] | 8 (≈ 21.8 µM) | –
3 | CCCSc1nc2c(c(=O)[nH]1)C(c1ccc(Oc3ccccc3)cc1)CC(=O)N2 (stereo not shown) [LSL-9-32, 2-propylmercapto-5-(4-phenoxyphenyl)-5,6-dihydropyrido[2,3-d]pyrimidin-4,7(3H,8H)-dione] | > 64 | –
4 | CCCSc1nc2c(c(=O)[nH]1)C(c1ccc(OC)c(O)c1)CC(=O)N2 (stereo not shown) [LSL-7-38, 2-propylmercapto-5-(3-hydroxy-4-methoxyphenyl)-5,6-dihydropyrido[2,3-d]pyrimidin-4,7(3H,8H)-dione] | 1 (≈ 2.77 µM) | –
5 | CCCSc1nc2nccc(-c3ccc4ncccc4c3)c2c(=O)[nH]1 [LSL-11-08, 2-propylmercapto-5-(quinolin-6-yl)-pyrido[2,3-d]pyrimidin-4(3H)-one] | 0.25 (≈ 0.718 µM) | anti-mycobacterium tuberculosis MIC compared with the positive control drug INH: equivalent to that of the positive control drug INH
6 | CCCSc1nc2c(c(=O)[nH]1)C(c1ccc(C(=O)O)cc1)CC(=O)N2 (stereo not shown) [LSL-11-24, 2-propylmercapto-5-(4-carboxyphenyl)-5,6-dihydropyrido[2,3-d]pyrimidin-4,7(3H,8H)-dione] | 2 (≈ 5.56 µM) | –
7 | CCCSc1nc2c(c(=O)[nH]1)C(c1ccc(Br)cc1[N+](=O)[O-])CC(=O)N2 (stereo not shown) [LSL-11-25, 2-propylmercapto-5-(2-nitro-4-bromophenyl)-5,6-dihydropyrido[2,3-d]pyrimidin-4,7(3H,8H)-dione] | 4 (≈ 9.11 µM) | –
8 | CCCCCCCOc1ccc(C2CC(=O)Nc3nc(SCCC)[nH]c(=O)c32)cc1 (stereo not shown) [LSL-11-39, 2-propylmercapto-5-(4-heptoxyphenyl)-5,6-dihydropyrido[2,3-d]pyrimidin-4,7(3H,8H)-dione] | – | anti-mycobacterium tuberculosis MIC compared with the positive control drug INH: equivalent to that of the positive control drug INH; MIC: 0.625 µg/mL (≈ 1.45 µM)
9 | CSc1nc2c(c(=O)[nH]1)C(c1ccc([N+](=O)[O-])cc1)CC(=O)N2 (stereo not shown) [LSL-7-49, 2-methylmercapto-5-(4-nitrophenyl)-5,6-dihydropyrido[2,3-d]pyrimidin-4,7(3H,8H)-dione] | 64 (≈ 193 µM) | –
10 | CCCSc1nc2c(c(=O)[nH]1)C(c1ccc(OC)cc1O)CC(=O)N2 (stereo not shown) [LSL-9-02, 2-propylmercapto-5-(2-hydroxy-4-methoxyphenyl)-5,6-dihydropyrido[2,3-d]pyrimidin-4,7(3H,8H)-dione] | 0.5 (≈ 1.38 µM) | anti-mycobacterium tuberculosis MIC compared with the positive control drug INH: equivalent to that of the positive control drug INH
11 | CCCSc1nc2c(c(=O)[nH]1)C(c1cc(O)c(O)c(O)c1)CC(=O)N2 (stereo not shown) [LSL-9-33, 2-propylmercapto-5-(3,4,5-trihydroxyphenyl)-5,6-dihydropyrido[2,3-d]pyrimidin-4,7(3H,8H)-dione] | 64 (≈ 176 µM) | –
12 | C=CCSc1nc2c(c(=O)[nH]1)C(c1ccc(OC)c(O)c1)CC(=O)N2 (stereo not shown) [LSL-9-15, 2-allylmercapto-5-(3-hydroxy-4-methoxyphenyl)-5,6-dihydropyrido[2,3-d]pyrimidin-4,7(3H,8H)-dione] | 2 (≈ 5.56 µM) | –
13 | CCCSc1nc2nccc(-c3ccc(OC)cc3)c2c(=O)[nH]1 [LSL-11-02, 2-propylmercapto-5-(4-methoxyphenyl)-pyrido[2,3-d]pyrimidin-4(3H)-one] | 0.5 (≈ 1.53 µM) | anti-mycobacterium tuberculosis MIC compared with the positive control drug INH: equivalent to that of the positive control drug INH
14 | CCCSc1nc2c(c(=O)[nH]1)C(c1ccoc1)CC(=O)N2 (stereo not shown) [LSL-11-38, 2-propylmercapto-5-(furan-3-y1)-5,6-dihydropyrido[2,3-d]pyrimidin-4,7(3H,8H)-dione] | – | Inhibitory activity against Mycobacterium tuberculosis, MIC, MTB H37Rv [1]: 1 µg/mL
15 | CCCSc1nc2c(c(=O)[nH]1)C(c1ccc(O)c(O)c1)CC(=O)N2 (stereo not shown) [LSL-7-42, 2-propylmercapto-5-(3,4-dihydroxyphenyl)-5,6-dihydropyrido[2,3-d]pyrimidin-4,7(3H,8H)-dione] | 32 (≈ 92.1 µM) | –
16 | CCCOc1ccc(C2CC(=O)Nc3nc(SCCC)[nH]c(=O)c32)cc1O (stereo not shown) [LSL-9-25, 2-propylmercapto-5-(3-hydroxy-4-propoxyphenyl)-5,6-dihydropyrido[2,3-d]pyrimidin-4,7(3H,8H)-dione] | 4 (≈ 10.3 µM) | –
17 | COc1ccc(C2CC(=O)Nc3nc(SC)[nH]c(=O)c32)cc1O (stereo not shown) [LSL-7-39, 2-methylmercapto-5-(3-hydroxy-4-methoxyphenyl)-5,6-dihydropyrido[2,3-d]pyrimidin-4,7(3H,8H)-dione] | 16 (≈ 48 µM) | –
18 | CCCSc1nc2c(c(=O)[nH]1)C(c1ccccc1[N+](=O)[O-])CC(=O)N2 (stereo not shown) [LSL-10-03, 2-propylmercapto-5-(2-nitrophenyl)-5,6-dihydropyrido[2,3-d]pyrimidin-4,7(3H,8H)-dione] | 8 (≈ 22.2 µM) | –

Row | Compound | MIC [1] [µg/mL] | further results
19 | CCCSc1nc2c(c(=O)[nH]1)C(c1cccc([N+](=O)[O-])c1)CC(=O)N2 (stereo not shown) [LSL-9-10, 2-propylmercapto-5-(3-nitrophenyl)-5,6-dihydropyrido[2,3-d]pyrimidin-4,7(3H,8H)-dione] | 4 (≈ 11.1 µM) | –
20 | CCCSc1nc2c(c(=O)[nH]1)C(c1nc3ccccc3s1)CC(=O)N2 (stereo not shown) [LSL-11-18, 2-propylmercapto-5-(benzothiazol-2-yl)-5,6-dihydropyrido[2,3-d]pyrimidin-4,7(3H,8H)-dione] | 2 (≈ 5.37 µM) | –
21 | CCCSc1nc2c(c(=O)[nH]1)C(c1ccc(OCC(C)C)cc1)CC(=O)N2 (stereo not shown) [LSL-11-27, 2-propylmercapto-5-(4-isobutoxyphenyl)-5,6-dihydropyrido[2,3-d]pyrimidin-4,7(3H,8H)-dione] | 1 (≈ 2.58 µM) | –
22 | CCCSc1nc2c(c(=O)[nH]1)C(c1ccc(OCC)cc1)CC(=O)N2 (stereo not shown) [LSL-9-39, 2-propylmercapto-5-(4-ethoxyphenyl)-5,6-dihydropyrido[2,3-d]pyrimidin-4,7(3H,8H)-dione] | 0.5 (≈ 1.39 µM) | anti-mycobacterium tuberculosis MIC compared with the positive control drug INH: equivalent to that of the positive control drug INH
23 | CCCSc1nc2c(c(=O)[nH]1)C(c1ccc(OC)c(O)c1O)CC(=O)N2 (stereo not shown) [LSL-9-23, 2-propylmercapto-5-(2,3-dihydroxy-4-methoxyphenyl)-5,6-dihydropyrido[2,3-d]pyrimidin-4,7(3H,8H)-dione] | 64 (≈ 170 µM) | –
24 | CCCCSc1nc2c(c(=O)[nH]1)C(c1ccc(OCCC)cc1)CC(=O)N2 (stereo not shown) [LSL-10-23, 2-butylmercapto-5-(4-propoxyphenyl)-5,6-dihydropyrido[2,3-d]pyrimidin-4,7(3H,8H)-dione] | 16 (≈ 41.3 µM) | –
25 | CCCSc1nc2c(c(=O)[nH]1)C(c1ccc3occc3c1)CC(=O)N2 (stereo not shown) [LSL-11-17, 2-propylmercapto-5-(benzofuran-5-yl)-5,6-dihydropyrido[2,3-d]pyrimidin-4,7(3H,8H)-dione] | – | Inhibitory activity against Mycobacterium tuberculosis, MIC, MTB H37Rv [1]: 4 µg/mL
26 | CCCSc1nc2c(c(=O)[nH]1)C(c1ccccc1)CC(=O)N2 (stereo not shown) [LSL-10-05, 2-propylmercapto-5-phenyl-5,6-dihydropyrido[2,3-d]pyrimidin-4,7(3H,8H)-dione] | 8 (≈ 25.4 µM) | –
27 | CCCSc1nc2c(c(=O)[nH]1)C(c1ccc(Cl)c(N)c1)CC(=O)N2 (stereo not shown) [LSL-9-43, 2-propylmercapto-5-(3-amino-4-chlorophenyl)-5,6-dihydropyrido[2,3-d]pyrimidin-4,7(3H,8H)-dione] | 4 (≈ 11 µM) | –
28 | CCCSc1nc2c(c(=O)[nH]1)C(c1ccc(C(F)(F)F)cc1)CC(=O)N2 (stereo not shown) [LSL-9-38, 2-propylmercapto-5-(4-trifluoromethylphenyl)-5,6-dihydropyrido[2,3-d]pyrimidin-4,7(3H,8H)-dione] | 16 (≈ 41.7 µM) | –
29 | CCCSc1nc2c(c(=O)[nH]1)C(c1cccc(C#N)c1)CC(=O)N2 (stereo not shown) [LSL-10-02, 2-propylmercapto-5-(3-cyanophenyl)-5,6-dihydropyrido[2,3-d]pyrimidin-4,7(3H,8H)-dione] | 6 (≈ 17.6 µM) | –
30 | CCCSc1nc2c(c(=O)[nH]1)C(c1ccc(F)cc1)CC(=O)N2 (stereo not shown) [LSL-9-27, 2-propylmercapto-5-(4-fluorophenyl)-5,6-dihydropyrido[2,3-d]pyrimidin-4,7(3H,8H)-dione] | > 64 | –
31 | CCCSc1nc2c(c(=O)[nH]1)C(c1ccc(OC)c(OC)c1)CC(=O)N2 (stereo not shown) [LSL-7-46, 2-propylmercapto-5-(3,4-dimethoxyphenyl)-5,6-dihydropyrido[2,3-d]pyrimidin-4,7(3H,8H)-dione] | 8 (≈ 21.3 µM) | –
32 | COc1cc(C2CC(=O)Nc3nc(SC)[nH]c(=O)c32)cc(OC)c1OC (stereo not shown) [LSL-7-43, 2-methylmercapto-5-(3,4,5-trimethoxyphenyl)-5,6-dihydropyrido[2,3-d]pyrimidin-4,7(3H,8H)-dione] | > 64 | –
33 | CCCSc1nc2c(c(=O)[nH]1)C(c1ccc([N+](=O)[O-])cc1)CC(=O)N2 (stereo not shown) [LSL-7-50, 2-propylmercapto-5-(4-nitrophenyl)-5,6-dihydropyrido[2,3-d]pyrimidin-4,7(3H,8H)-dione] | 64 (≈ 178 µM) | –
34 | CCCSc1nc2c(c(=O)[nH]1)C(c1ccc(I)cc1)CC(=O)N2 (stereo not shown) [LSL-9-19, 2-propylmercapto-5-(4-iodophenyl)-5,6-dihydropyrido[2,3-d]pyrimidin-4,7(3H,8H)-dione] | > 64 | –
35 | CCCSc1nc2c(c(=O)[nH]1)C(c1ccc(Sc3ccccc3)cc1)CC(=O)N2 (stereo not shown) [LSL-11-19, 2-propylmercapto-5-(4-phenylthiophenyl)-5,6-dihydropyrido[2,3-d]pyrimidin-4,7(3H,8H)-dione] | 8 (≈ 18.9 µM) | –
36 | CCCSc1nc2c(c(=O)[nH]1)C(c1ccc3ncccc3c1)CC(=O)N2 (stereo not shown) [LSL-9-36, 2-propylmercapto-5-(quinolin-6-yl)-5,6-dihydropyrido[2,3-d]pyrimidin-4,7(3H,8H)-dione] | 0.125 (≈ 0.341 µM) | anti-mycobacterium tuberculosis MIC compared with the positive control drug INH: equivalent to that of the positive control drug INH
